# Tests used:
# Assay type in all cases: biochemical
# CDK2 = CDK2 (Homo sapiens, UniProt P24941); experiment: CDK2 substrate phosphorylation assay; details: kinase inhibition, Table 3
# Experimental: Cyclin dependent protein kinase assays utilized the peptides Biotin-aminohexyl-[…] and Biotin-aminohexyl-[…]-NH2 as phosphoryl group acceptors. CDK2 was expressed utilizing a baculovirus expression system and was partially purified to comprise 20-80% of total protein, with no detectable competing reactions present. Typically, assays were performed by incubating enzyme (0.2-10 nM), with and without inhibitor, one of the two peptide substrates ([…]), [γ-^32P]ATP ([…]), and 10-20 mM Mg^2+ for periods of time generally within the range 10-120 min. Reactions were terminated with 0.2-2 volumes of either 20% acetic acid or 50-100 mM EDTA buffered to pH 7 (substrate consumption <20%). The buffer employed in enzyme assays was either 30 mM HEPES 7.4 containing 0.15 M NaCl and 5% DMSO, the buffer 50 mM MOPS 7.0 containing 0.15 M NaCl and 5% DMSO, or the buffer 100 mM HEPES pH 7.5 containing 0.1 mg/mL BSA and 5% DMSO. Inhibitors were diluted in 100% DMSO prior to addition into the assay. Detection of peptide phosphorylation was accomplished by scintillation counting following either collection of peptide onto phosphocellulose filters (for reactions stopped with acetic acid), collection of peptide in wells of 96 well plates coated with Streptavidin (Pierce) (reactions were stopped with EDTA), or addition of Avidin coated Scintillant impregnated beads (Scintillation Proximity Assays from Amersham; reactions were stopped with EDTA).
# VEGFR-2 = biological target: T1, VEGFR-2 (Homo sapiens, UniProt P35968); experiment: VEGFR-2 kinase assay; details: kinase inhibition, Table 3; read-out: VEGFR2 (IC50)
# T1 construct: The kinase domain of the enzyme was purified to homogeneity from a baculovirus expression system; made in house
# T1 sequence (P35968 834-1162 limits assumed, species assumed): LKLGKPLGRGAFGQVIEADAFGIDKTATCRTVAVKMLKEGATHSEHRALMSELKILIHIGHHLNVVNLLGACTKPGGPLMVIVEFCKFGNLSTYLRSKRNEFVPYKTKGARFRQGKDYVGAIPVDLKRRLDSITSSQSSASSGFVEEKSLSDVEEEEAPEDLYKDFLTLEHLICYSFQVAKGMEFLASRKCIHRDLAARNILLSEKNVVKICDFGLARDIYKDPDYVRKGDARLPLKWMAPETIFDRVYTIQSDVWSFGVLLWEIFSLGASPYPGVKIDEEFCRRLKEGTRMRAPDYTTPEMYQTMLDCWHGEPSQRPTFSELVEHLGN
# Experimental: The peptide substrate used in the VEGFR-2 assay was biotin-aminohexyl-[…]-NH2. The kinase domain of the enzyme was purified to homogeneity from a baculovirus expression system. The enzyme was preactivated on ice for 15 min in the presence of 100 μM ATP and 20 mM MgCl2, and stored at −80° C. until needed for assay. The activated enzyme was diluted to 0.4 nM into a 60 μl reaction containing 100 mM HEPES, pH 7.5, 5 μM ATP, 10 mM MgCl2, 5 μM peptide, 0.1 mM DTT, 0.05 mg/ml BSA, and an inhibitor at varying concentrations. The controls were reactions in the presence (negative controls) or absence (positive controls) of 50 mM EDTA. Reactions were incubated for 30 min at room temperature, and then quenched by the addition of EDTA to 60 mM in 210 μl. The quenched samples (190 μl) were transferred to a neutravidin-coated plate (Pierce) and incubated at room temperature for 40 min to allow biotinylated peptide to bind to the neutravidin. The unbound components of the reaction were removed by washing with a plate washer, then 200 μl HRP-PY20 anti-phosphotyrosine antibody conjugate was added to each well. After incubation for 40 min, the plate was washed to remove any unbound anitbody. A HRP substrate, K-blue (Neogen) was added and the reaction was quenched with Red Stop (Neogen) after 20 min. The absorbance of the wells was read at A650 in a plate reader. IC50 values were obtained by fitting raw data to A650=VMAX*(1−[I]/IC50+[I])))+b, where b is background.
# c-fms = biological target: T2, c-fms (Homo sapiens, UniProt P07333); experiment: c-fms protein kinase assay; details: kinase inhibition, Table 3
# T2 construct: The c-fms intracellular domain was expressed from a baculovirus expression system; GST (N); made in house
# T2 sequence (P07333 539-972 limits assumed): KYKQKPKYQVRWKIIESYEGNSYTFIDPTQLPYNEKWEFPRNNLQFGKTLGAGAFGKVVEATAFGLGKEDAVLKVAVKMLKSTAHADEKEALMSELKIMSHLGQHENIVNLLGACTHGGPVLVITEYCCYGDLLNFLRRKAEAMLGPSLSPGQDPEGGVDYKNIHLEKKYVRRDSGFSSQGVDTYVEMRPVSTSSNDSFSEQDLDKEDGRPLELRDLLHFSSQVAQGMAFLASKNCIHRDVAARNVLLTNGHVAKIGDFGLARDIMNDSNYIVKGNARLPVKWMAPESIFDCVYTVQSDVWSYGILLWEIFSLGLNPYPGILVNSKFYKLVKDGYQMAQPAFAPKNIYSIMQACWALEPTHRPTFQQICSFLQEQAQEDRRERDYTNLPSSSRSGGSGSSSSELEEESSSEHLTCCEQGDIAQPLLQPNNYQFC
# Experimental: c-fms protein kinase assays utilized the peptide substrate, biotin-[…]-NH2 as the phosphoryl group acceptor. The c-fms intracellular domain was expressed from a baculovirus expression system, as an amino-terminal GST fusion protein, and purified to homogeneity using Glutathione agarose from Sigma Chemical Co. Maximum activation of the enzyme was achieved by preactivation at room temperature for 120 min in the presence of 100 μM ATP and 15 mM MgCl2, This enzyme stock was diluted to 150 nM prior to using in the assay. Typically assays were performed in white, opaque, 96-well plates in a 45 ul assay volume including 15 ul 6% DMSO, with or without compounds, 15 ul of the preactivated, diluted enzyme, and 15 ul of a substrate mixture. Reactions contained 50 mM HEPES, pH 7.5, 1.7 μM ATP, 15 mM MgCl2, 3 μM peptide, 2.5 mM DTT, 50 mM NaCl and 0.15 uCi/assay [□□^32P]ATP. The controls were reactions in the presence (negative controls) or absence (positive controls) of 50 mM EDTA. Reactions were allowed to proceed for 90 min at room temperature. The reaction products were quantified using Scintillation Proximity technolgy. The reactions were quenched by the addition of 200 ul of a solution containing 0.3 mg streptavidin SPA beads from Amersham, 50 mM EDTA, 0.1% TX-100, 50 uM ATP, in PBS, pH7.2 (phosphate buffered solution). Plates were sealed and counted in a Packard Topcount scintillation counter. IC50 values were obtained by fitting raw data to the equation y=Vmax*(1−(x/(k+x))).
IC50 (CDK2) [nM],IC50 (VEGFR-2) [nM],IC50 (c-fms) [nM],Structure (SMILES)
10 to 100,1000 to 10000,,"NS(=O)(=O)c1ccc(NC=C2C(=O)Nc3ccncc32)cc1 [Example 1, 4-{[(2-Oxo-1,2-dihydro-3H-pyrrolo[3,2-c]pyridin-3-ylidene)methyl]amino}benzenesulfonamide]"
10 to 100,,,"NS(=O)(=O)c1ccc(NC=C2C(=O)Nc3cnccc32)cc1 [Example 2, 4-{[(2-Oxo-1,2-dihydro-3H-pyrrolo[2,3-c]pyridin-3-ylidene)methyl]amino}benzenesulfonamide]"
,1000 to 10000,,"O=C1Nc2cccnc2C1=CNc1ccc2cn[nH]c2c1 [Example 3, 3-[(1H-Indazol-6-ylamino)methylidene]-1H-pyrrolo[3,2-b]pyridin-2-one]"
,1000 to 10000,,"O=C1Nc2cccnc2C1=CNc1ccc2ncccc2c1 [Example 4, 3-[(6-Quinolinylamino)methylidene]-1,3-dihydro-2H-pyrrolo[3,2-b]pyridin-2-one]"
100 to 1000,1000 to 10000,,"NS(=O)(=O)c1ccc(NC=C2C(=O)Nc3ncccc32)cc1 [Example 5, 4-{[(2-Oxo-1,2-dihydro-3H-pyrrolo[2,3-b]pyridin-3-ylidene)methyl]amino}benzenesulfonamide]"
,100 to 1000,1000 to 10000,"O=C1Nc2ncccc2C1=CNc1ccc2cn[nH]c2c1 [Example 6, 3-[(1H-Indazol-6-ylamino)methylidene]-1H-pyrrolo[2,3-b]pyridin-2-one]"
,1000 to 10000,,"O=C1Nc2ncccc2C1=CNc1ccc2ncccc2c1 [Example 7, 3-[(6-Quinolinylamino)methylidene]-1,3-dihydro-2H-pyrrolo[2,3-b]pyridin-2-one]"
1000 to 10000,,,"NS(=O)(=O)c1ccc(NC=C2C(=O)Nc3ncc(-c4ccccc4)cc32)cc1 [Example 8, 4-{[(2-Oxo-5-phenyl-1,2-dihydro-3H-pyrrolo[2,3-b]pyridin-3-ylidene)methyl]amino}benzenesulfonamide]"
,,1000 to 10000,"O=C1Nc2ncc(-c3ccccc3)cc2C1=CNc1ccc2cn[nH]c2c1 [Example 9, 3-[(1H-Indazol-6-ylamino)methylidene]-5-phenyl-1H-pyrrolo[2,3-b]pyridin-2-one]"
,,1000 to 10000,"O=C1Nc2ncc(-c3ccccc3)cc2C1=CNc1ccc2ncccc2c1 [Example 10, 5-Phenyl-3-[(6-quinolinylamino)methylidene]-1,3-dihydro-2H-pyrrolo[2,3-b]pyridin-2-one]"
10 to 100,1000 to 10000,100 to 1000,"NS(=O)(=O)c1ccc(NC=C2C(=O)Nc3ncc(-c4ccco4)cc32)cc1 [Example 11, 4-({[5-(2-Furyl)-2-oxo-1,2-dihydro-3H-pyrrolo[2,3-b]pyridin-3-ylidene]methyl}amino)benzenesulfonamide]"
1000 to 10000,100 to 1000,1000 to 10000,"O=C1Nc2ncc(-c3ccco3)cc2C1=CNc1ccc2cn[nH]c2c1 [Example 12, 5-(2-Furyl)-3-[(1H-indazol-6-ylamino)methylidene]-1H-pyrrolo[2,3-b]pyridin-2-one]"
,1000 to 10000,1000 to 10000,"O=C1Nc2ncc(-c3ccco3)cc2C1=CNc1ccc2ncccc2c1 [Example 13, 5-(2-Furyl)-3-[(6-quinolinylamino)methylidene]-1,3-dihydro-2H-pyrrolo[2,3-b]pyridin-2-one]"
100 to 1000,100 to 1000,100 to 1000,"NS(=O)(=O)c1ccc(NC=C2C(=O)Nc3ncc(-c4ccsc4)cc32)cc1 [Example 14, 4-({[2-Oxo-5-(3-thienyl)-1,2-dihydro-3H-pyrrolo[2,3-b]pyridin-3-ylidene]methyl}amino)benzenesulfonamide]"
100 to 1000,1000 to 10000,1000 to 10000,"O=C1Nc2ncc(-c3ccsc3)cc2C1=CNc1ccc2cn[nH]c2c1 [Example 15, 3-[(1H-Indazol-6-ylamino)methylidene]-5-(3-thienyl)-1,3-dihydro-2H-pyrrolo[2,3-b]pyridin-2-one]"
,1000 to 10000,100 to 1000,"O=C1Nc2ncc(-c3ccsc3)cc2C1=CNc1ccc2ncccc2c1 [Example 16, 3-[(6-Quinolinylamino)methylidene]-5-(3-thienyl)-1,3-dihydro-2H-pyrrolo[2,3-b]pyridin-2-one]"
10 to 100,100 to 1000,1000 to 10000,"NS(=O)(=O)c1ccc(NC=C2C(=O)Nc3ncc(Br)cc32)cc1 [Example 17, 4-{[(5-Bromo-2-oxo-1,2-dihydro-3H-pyrrolo[2,3-b]pyridin-3-ylidene)methyl]amino}benzenesulfonamide]"
10 to 100,100 to 1000,1000 to 10000,"O=C1Nc2ncc(Br)cc2C1=CNc1ccc2cn[nH]c2c1 [Example 18, 5-Bromo-3-[(1H-indazol-6-ylamino)methylidene]-1,3-dihydro-2H-pyrrolo[2,3-b]pyridin-2-one]"
10 to 100,100 to 1000,1000 to 10000,"O=C1Nc2ncc(Br)cc2C1=CNc1ccc2ncccc2c1 [Example 19, 5-Bromo-3-[(6-quinolinylamino)methylidene]-1,3-dihydro-2H-pyrrolo[2,3-b]pyridin-2-one]"
100 to 1000,100 to 1000,,"NS(=O)(=O)c1ccc(NC=C2C(=O)Nc3nc(Cl)ccc32)cc1 [Example 20, 4-{[(6-Chloro-2-oxo-1,2-dihydro-3H-pyrrolo[2,3-b]pyridin-3-ylidene)methyl]amino}benzenesulfonamide]"
100 to 1000,100 to 1000,1000 to 10000,"O=C1Nc2nc(Cl)ccc2C1=CNc1ccc2cn[nH]c2c1 [Example 21, 6-Chloro-3-[(1H-indazol-6-ylamino)methylidene]-1,3-dihydro-2H-pyrrolo[2,3-b]pyridin-2-one]"
,1000 to 10000,1000 to 10000,"O=C1Nc2nc(Cl)ccc2C1=CNc1ccc2ncccc2c1 [Example 22, 6-Chloro-3-[(6-quinolinylamino)methylidene]-1,3-dihydro-2H-pyrrolo[2,3-b]pyridin-2-one]"
100 to 1000,100 to 1000,,"CCOC(=O)c1cnc2c(c1)C(=CNc1ccc3ncccc3c1)C(=O)N2 [Example 25, Ethyl 2-oxo-3-[(6-quinolinylamino)methylidene]-2,3-dihydro-1H-pyrrolo[2,3-b]pyridine-5-carboxylate]"
